Data: US6900315B2, “2-amino-9H-purin-9-yl compounds and methods for inhibiting/treating HIV infections and AIDS related symptoms” (Yale University, priority 2001, dated 2005)
Like-named read-outs stand apart in the source and are kept apart here.

Experiments:
KB = test: Toxicity, dye based cell growth assay, KB; settings: Homo sapiens, 120 h, read-out: IC50 (inhibited 50% of the cell growth), oral carcinoma, 5 days
Procedure: (§1) To determine the toxicity of the compounds to various cell lines (Table 1, below), a similar dye based assay is performed in the absence of HIV. The toxicity of the compounds alone therefore was determined.

HIV IIIB = test: Anti-HIV activity in MT-2 cells infected with HIV IIIB, MTT dye cell viability; assay type: cell-based; settings: for anti-HIV activity: summary of Table 1
Procedure: To assess the ability of the compounds according to the present invention to inhibit viral infection relative to other compounds experiments were performed in the MT-2 cell line, as previously described by Larder, et al., Antimicrobial Agents & Chemotherapy, vol. 34, 436 (1990). […] Cells were infected at an initial multiplicity of infection (MOI) of 0.1 and grown for 5 days. Cell viability was assessed by the use of dye metabolized by viable cells.

HIV [1] = test: Anti-HIV drug combination (synergy, isobologram of FEC50) in cell culture; assay type: cell-based
Procedure: Points on this line represent the compounds working independently.
In an attempt to understand how D4G prodrugs of the present invention would interact with other clinically approved compounds, experiments were performed with drug combinations. […] Points on the line represent two compounds working independently. […] See, Bridges, et al., Biochem. Pharmacol., 51, 731 (1996) and Dutschman, et al., Antimicro. Agents Chemother. 42, 1799 (1998).

[2] = system: mitochondrial DNA in CEM cells; test: Mitochondrial toxicity: ratio of mitochondrial DNA to Alu repeat in CEM cells; assay type: cell-based; settings: human, 8 days
From the text: After 8 days of growth the cells were lysed and probed for the amount of mitochondrial DNA and normalized for differences in the amount of total DNA by probing for the Alu repeat. By comparing the amount of mitochondrial DNA to the amount of Alu repeat the % decrease in mitochondrial DNA in the presence of various concentrations of drug can be obtained. All experiments were done in triplicate. Techniques which are presented here have been previously described in Chen and Cheng, J. Biol. Chem., vol. 264, 11934-7 (1989).

CEM = test: Toxicity, dye based cell growth assay, CEM; settings: Homo sapiens, CCRF-CEM, 120 h, read-out: IC50 (inhibited 50% of the cell growth); CEM, T cell line, 5 days
Procedure: as §1

HeLa = test: Toxicity, dye based cell growth assay, HeLa; settings: Homo sapiens, 120 h, read-out: IC50 (inhibited 50% of the cell growth), cervical cancer cell line, 5 days
Procedure: as §1

HEP-G2 = test: Toxicity, dye based cell growth assay, HEP-G2; settings: Homo sapiens, HepG2, 120 h, read-out: IC50 (inhibited 50% of the cell growth); HEP-G2, hepatoma cell line, 5 days
Procedure: as §1

MT-2 = test: Toxicity, dye based cell growth assay in absence of HIV, MT-2; settings: Homo sapiens, MT2, 120 h, read-out: IC50 (inhibited 50% of the cell growth); MT-2, HTLV infected T cell line, 5 days
Procedure: as §1

HIV [3] = test: Effect of mycophenolic acid on anti-HIV activity of nucleoside analogs in cell culture; assay type: cell-based
Procedure: FIG. 2 presents table 6 and indicates the effect that mycophenolic acid has on the anti-HIV activity of the indicated nucleoside analogs. In the experiment depicted in this Figure, 1×10^5 cells/ml were incubated with or without 200 nM mycophenolic acid for 30 minutes and then added to wells containing nucleoside analogs to test for toxicity and anti-HIV activity. The date presented is representative of at least two independent trials.
In cell culture, the mechanism of activation for D4G prodrugs has been investigated with the initial model compound cyclo D4G. […] Experiments with mycophenolic acid, an inhibitor of inosine monophosphate (IMP) dehydrogenase have been used to study the guanine dependence of activation for cyclo D4G. The addition of mycophenolic acid results in an increase in cellular IMP and a decrease in GMP and all other guanine containing nucleosides and nucleotides. […]. The data which is presented is representative of at least two independent trials. Furthermore, cyclo D4G's activity could be rescued by the addition of guanine to the media (data not shown).

[4] = biological target: T1, mitochondrial polymerase gamma (Homo sapiens, UniProt P54098); test: Exonuclease removal from chain terminated primer template by mitochondrial polymerase gamma; assay type: biochemical
T1 sequence (P54098 1-1239): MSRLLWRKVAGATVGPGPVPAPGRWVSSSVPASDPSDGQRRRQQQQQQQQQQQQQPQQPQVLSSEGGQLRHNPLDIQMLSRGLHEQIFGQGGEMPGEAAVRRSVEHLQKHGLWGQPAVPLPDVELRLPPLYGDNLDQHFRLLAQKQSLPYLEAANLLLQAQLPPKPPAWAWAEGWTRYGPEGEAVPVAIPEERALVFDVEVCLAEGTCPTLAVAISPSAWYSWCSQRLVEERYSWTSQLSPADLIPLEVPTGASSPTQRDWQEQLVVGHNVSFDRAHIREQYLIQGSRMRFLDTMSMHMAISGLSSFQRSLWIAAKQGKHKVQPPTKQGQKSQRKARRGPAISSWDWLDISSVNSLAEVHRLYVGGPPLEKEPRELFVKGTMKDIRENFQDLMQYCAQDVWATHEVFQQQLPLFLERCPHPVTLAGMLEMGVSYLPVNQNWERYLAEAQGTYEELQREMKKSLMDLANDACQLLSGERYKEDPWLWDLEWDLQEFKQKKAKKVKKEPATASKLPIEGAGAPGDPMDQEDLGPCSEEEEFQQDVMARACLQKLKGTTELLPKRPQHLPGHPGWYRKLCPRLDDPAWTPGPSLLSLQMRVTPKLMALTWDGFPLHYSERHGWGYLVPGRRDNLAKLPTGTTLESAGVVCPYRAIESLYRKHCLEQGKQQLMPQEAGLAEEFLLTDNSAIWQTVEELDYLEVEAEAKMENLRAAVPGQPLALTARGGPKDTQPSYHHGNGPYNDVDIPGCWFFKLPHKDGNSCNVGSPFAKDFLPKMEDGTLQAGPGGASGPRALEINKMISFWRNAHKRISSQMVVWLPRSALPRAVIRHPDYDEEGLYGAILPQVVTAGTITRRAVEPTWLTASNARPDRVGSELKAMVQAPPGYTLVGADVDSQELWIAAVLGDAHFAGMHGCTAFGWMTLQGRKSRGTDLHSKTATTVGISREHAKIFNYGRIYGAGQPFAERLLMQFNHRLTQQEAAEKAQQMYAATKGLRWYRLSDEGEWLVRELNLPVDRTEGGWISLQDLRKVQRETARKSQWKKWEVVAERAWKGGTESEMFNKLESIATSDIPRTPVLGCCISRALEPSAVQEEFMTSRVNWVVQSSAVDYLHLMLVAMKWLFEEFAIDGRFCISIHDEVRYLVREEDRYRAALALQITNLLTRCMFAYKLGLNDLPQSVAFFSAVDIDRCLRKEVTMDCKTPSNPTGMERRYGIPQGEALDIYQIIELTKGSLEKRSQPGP

[5] = biological target: T2, wild type HIV-1 reverse transcriptase (Human immunodeficiency virus type 1 group M subtype B, UniProt P04585); test: Kinetics of nucleotide incorporation by wild type HIV-1 reverse transcriptase; assay type: biochemical; set-up: kpol/Kd: unit not given here
T2 construct: a mixture of 100 nM HIV-1 reverse transcriptase and 300 nM primer/template
Procedure: Continued research on the guanosine prodrug approach for making D4G a viable anti-HIV agent has yielded a number of new findings. In the present example, enzyme kinetics for the incorporation of the active metabolites of guanosine prodrugs with wild type HIV-1 reverse transcriptase was determined. In this experiment, a mixture of 100 nM HIV-1 reverse transcriptase and 300 nM primer/template in which the correct base incorporation is a guanine nucleotide was rapidly mixed with nucleotide in the presence of 50 mM Tris, 50 mM NaCl and 10 mM MgCl2 for a set amount of time and then the reaction was stopped by the addition 300 mM of EDTA.

[6] = biological target: T1, mitochondrial polymerase gamma; test: Nucleotide incorporation by mitochondrial polymerase gamma into an elongating DNA strand; assay type: biochemical; settings: for Kd / kpol / kpol/Kd: mitochondrial polymerase gamma, incorporation
[7] = biological target: T1, mitochondrial polymerase gamma; settings: cited from earlier work
[8] = biological target: T1, mitochondrial polymerase gamma; settings: exonuclease; from Johnson et al.; cited from earlier work
[9] = biological target: T2, wild type HIV-1 reverse transcriptase; settings: from Ray and Anderson or Furman et al., cited from earlier work
HIV [10] = settings: cited from earlier work
[11] = Table 4, primer/template DNA/DNA, RT WT
[12] = Table 4, primer/template DNA/RNA, RT WT
[13] = mitochondrial polymerase gamma, from Johnson et al.

SMILES | IC50 (KB) [µM] | anti-HIV activity (HIV IIIB) | % Control (mtDNA/Alu) ([2]; 1 μM) [%] | Ration of mtDNA/Alu ([2]; 1 μM) | % Control (mtDNA/Alu) ([2]; 10 μM) [%] | Ration of mtDNA/Alu ([2]; 10 μM) | IC50 (CEM) [µM] | IC50 (HeLa) [µM] | IC50 (HEP-G2) [µM] | IC50 (MT-2) [µM] | kexo [4] [s⁻¹] | Efficiency [5, 11] [s^−1μM^−1] | Kd [5, 11] [µM] | kpol [5, 11] [s⁻¹] | Efficiency [5, 12] [s^−1μM^−1] | Kd [5, 12] [µM] | kpol [5, 12] [s⁻¹] | Kd [6] [µM] | kpol [6] [s⁻¹] | kpol/Kd [6] [M⁻¹ s⁻¹] | other results
Nc1nc(NC2CC2)c2ncn([C@H]3C=C[C@@H](CO)O3)c2n1 [Cd4G, 2-Amino-6-cyclopropylamino-9-(2,3-dideoxy-β-D-glycero-pent-2-enofuranosyl)purine] | > 500 | strong anti-HIV activity | 99 | 1.06 ± 0.11 | 84 | 0.90 ± 0.06 | 200 ± 31 | 500 ± 33 | > 500 | 100 ± 22 |  |  |  |  |  |  |  |  |  |  | EC50 (HIV IIIB; Human immunodeficiency virus 1, IIIB, MT2, 120 h, read-out: EC50 (concentration necessary to save 50% of the cells)): 8 µM; anti-HIV interaction in combination with 3TC (HIV [1]; FIG. 3 and FIG. 4): synergistic; anti-HIV interaction in combination with D4T (HIV [1]; FIG. 4): somewhat synergistic; anti-HIV interaction in combination with AZT (HIV [1]; FIG. 4, D4T with AZT data not shown): synergistic; mitochondrial toxicity [2]: lower mitochondrial toxicity than D4T; % Control (mtDNA/Alu) ([2]; 200 μM): 43%; Ration of mtDNA/Alu ([2]; 200 μM): 0.46 ± 0.06; fold less active (anti-HIV) in the presence of mycophenolic acid (HIV [3]; 200 nM mycophenolic acid, 30 minutes, 1×10^5 cells/ml): 3 fold; anti-HIV activity on addition of guanine to the media (HIV [3]; in the presence of mycophenolic acid, data not shown): rescued
Nc1nc2c(ncn2[C@H]2C=C[C@@H](COP(=O)(O)OP(=O)(O)OP(=O)(O)O)O2)c(=O)[nH]1 [D4GTP] |  |  |  |  |  |  |  |  |  |  | 0.00046 ± 0.000021 | 1.1 ± 0.3 | 11 ± 2 | 11 ± 1 | 1.4 ± 0.2 | 9.5 ± 1.1 | 13 ± 0.5 | 0.61 ± 0.13 | 0.27 ± 0.02 | 450000 ± 99000 | Kd ([5]; Table 3, substrate DNA/DNA): 11 ± 2 µM; Selectivity = (kpol/Kd)dGTP/(kpol/Kd)analog ([5]; Table 3, substrate DNA/DNA): 1.5; kpol ([5]; Table 3, substrate DNA/DNA): 11 ± 1 s⁻¹; kpol/Kd ([5]; Table 3, substrate DNA/DNA): 1.1 ± 0.26; Kd ([5]; Table 3, substrate DNA/RNA): 9.5 ± 1.1 µM; Selectivity = (kpol/Kd)dGTP/(kpol/Kd)analog ([5]; Table 3, substrate DNA/RNA): 2; kpol ([5]; Table 3, substrate DNA/RNA): 13 ± 0.5 s⁻¹; kpol/Kd ([5]; Table 3, substrate DNA/RNA): 1.4 ± 0.2; Selectivity = efficiency dGTP/efficiency analog [5, 11]: 2; Selectivity = efficiency dGTP/efficiency analog [5, 12]: 2; Toxicity Index ([6]; fold increase in time for mitochondrial replication, 1 = no toxicity): 320
Cc1cn([C@H]2C=C[C@@H](COP(=O)(O)OP(=O)(O)OP(=O)(O)O)O2)c(=O)[nH]c1=O [D4TTP] |  |  |  |  |  |  |  |  |  |  |  |  |  |  |  |  |  |  |  |  | Toxicity Index [7]: 3,120; Discrimination [7, 13]: 7.4; Kd [7, 13]: 0.045 ± 0.0075 µM; kpol [7, 13]: 0.24 ± 0.01 s⁻¹; kpol/Kd [7, 13]: 5.4e+06 ± 930000 M⁻¹ s⁻¹; kexo [8]: 0.0004 s⁻¹
Nc1nc2c(ncn2[C@H]2C[C@H](O)[C@@H](COP(=O)(O)OP(=O)(O)OP(=O)(O)O)O2)c(=O)[nH]1 [DGTP] |  |  |  |  |  |  |  |  |  |  | 0.019 ± 0.0019 | 1.7 ± 0.3 | 14 ± 2 | 24 ± 1 | 3.1 ± 0.6 | 11 ± 2 | 35 ± 2 | 1.4 ± 0.3 | 175 ± 10 | 1.3e+08 ± 3e+07 | Kd ([9]; Table 3, substrate DNA/DNA): 14 ± 2 µM; Selectivity = (kpol/Kd)dGTP/(kpol/Kd)analog ([9]; Table 3, substrate DNA/DNA): 1; kpol ([9]; Table 3, substrate DNA/DNA): 24 ± 1 s⁻¹; Kd ([9]; Table 3, substrate DNA/RNA): 11 ± 2 µM; Selectivity = (kpol/Kd)dGTP/(kpol/Kd)analog ([9]; Table 3, substrate DNA/RNA): 1; kpol ([9]; Table 3, substrate DNA/RNA): 35 ± 2 s⁻¹
Nc1nc2c(ncn2[C@H]2C=C[C@@H](CO)C2)c(=O)[nH]1 [carbovir] |  |  |  |  |  |  |  |  |  |  |  |  |  |  |  |  |  |  |  |  | previously reported activity against HIV (HIV [10]): significant activity
Nc1nc2c(ncn2[C@H]2C=C[C@@H](CO)O2)c(=O)[nH]1 [d4G, 9-(2,3-Dideoxy-β-D-glycero-pent-2-enofuranosyl)guanine] | > 500 | complete inactivity | 105 | 1.12 ± 0.17 | 106 | 1.14 ± 0.07 | 70 ± 11 | 200 ± 13 | 280 ± 19 | 40 ± 9 |  |  |  |  |  |  |  |  |  |  | previously reported activity against HIV (HIV [10]): inactive
